# According to US6737383B1, “Herbicidal oxadiazolidines” (priority 1999, dated 2004):
# Experiments:
# [1] = tested on: bedstraw; test: Test B pre/postemergence bedstraw; format: in vivo, Galium aparine
# Procedure, shortened: (§1)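 Test chemicals in a non-phytotoxic solvent mixture with surfactant were sprayed preemergence onto planted seeds and postemergence onto plants 2 to 18 cm tall (1- to 4-leaf stage). After twelve to sixteen days in a greenhouse, injury was visually rated against untreated controls from 0 (no effect) to 10 (complete control).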
# [2] = tested on: soybean; test: Test B pre/postemergence soybean; format: in vivo, Glycine max
# Procedure, shortened: as §1
# [3] = tested on: corn; test: Test B pre/postemergence corn; format: in vivo, Zea mays
# Procedure, shortened: as §1
# [4] = tested on: giant foxtail; test: Test B pre/postemergence giant foxtail; format: in vivo, Setaria faberii
# Procedure, shortened: as §1
# [5] = tested on: rice; test: Test B flood test rice; format: in vivo, Oryza sativa
# Procedure, shortened: (§2)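 Flood test on plants grown to the 2-leaf stage; treated plants kept in greenhouse twelve to sixteen days, then visually rated against controls on a 0 (no effect) to 10 (complete control) scale.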
# [6] = tested on: purple nutsedge; test: Test B pre/postemergence purple nutsedge; format: in vivo, Cyperus rotundus
# Procedure, shortened: as §1
# [7] = tested on: duck salad; test: Test B flood test duck salad; format: in vivo, Heteranthera limosa
# Procedure, shortened: as §2
# [8] = tested on: pigweed; test: Test B pre/postemergence pigweed; format: in vivo, Amaranthus retroflexus
# Procedure, shortened: as §1
# [9] = tested on: bamyardgrass; test: Test B flood test barnyardgrass; format: in vivo, Echinochloa crus-galli
# Procedure, shortened: as §2
# [10] = tested on: morningglory; test: Test B pre/postemergence morningglory; format: in vivo, Ipomoea hederacea
# Procedure, shortened: as §1
# [11] = tested on: blackgrass; test: Test B pre/postemergence blackgrass; format: in vivo, Alopecurus myosuroides
# Procedure, shortened: as §1
# [12] = tested on: sugar beet; test: Test B pre/postemergence sugar beet; format: in vivo, Beta vulgaris; settings: for Plant response rating, Sugarbeets: Rate 250 g/ha
# Procedure, shortened: as §1
# [13] = tested on: surinam grass; test: Test B pre/postemergence surinam grass; format: in vivo, Brachiaria decumbens
# Procedure, shortened: as §1
# [14] = tested on: velvetleaf; test: Test B pre/postemergence velvetleaf; format: in vivo, Abutilon theophrasti; settings: for Plant response rating, Velvetleaf: Rate 250 g/ha
# Procedure, shortened: as §1
# [15] = tested on: smallflower flatsedge; test: Test B flood test smallflower flatsedge; format: in vivo, Cyperus difformis
# Procedure, shortened: as §2
# [16] = tested on: rape; test: Test B pre/postemergence rape; format: in vivo, Brassica napus
# Procedure, shortened: as §1
# [17] = Postemergence, Rate 62 g/ha, scale 0 to 10, 0 is no effect, 10 is complete control
# [18] = Postemergence, Rate 250 g/ha, scale 0 to 10, 0 no effect, 10 complete control
# [19] = Preemergence, Rate 62 g/ha, scale 0 to 10 (0 no effect, 10 complete control)
# [20] = Preemergence, Rate 125 g/ha, scale 0 to 10 (0 no effect, 10 complete control)
# [21] = Preemergence, Rate 250 g/ha, scale of 0 to 10 where 0 is no effect and 10 is complete control
# [22] = Preemergence, Rate 500 g/ha, scale 0 to 10 (0 no effect, 10 complete control)
# [23] = Rate 125 g/ha, Postemergence, scale 0 to 10, 0 no effect, 10 complete control
# [24] = Rate 500 g/ha, Postemergence, scale 0 to 10, 0 no effect, 10 complete control
# [25] = Postemergence, Rate 125 g/ha, scale of 0 to 10 where 0 is no effect and 10 is complete control
# [26] = Rate 62 g/ha, Postemergence, scale of 0 to 10 where 0 is no effect and 10 is complete control
# [27] = Rate 250 g/ha, Postemergence, scale 0 to 10, 0 is no effect, 10 is complete control
# [28] = Postemergence (flood test species), Rate 125 g/ha, scale of 0 to 10 where 0 is no effect and 10 is complete control
# [29] = Rate 62 g/ha, Postemergence section, flood test species, scale of 0 to 10 where 0 is no effect and 10 is complete control
# [30] = Rate 250 g/ha, Postemergence (flood test), scale 0 to 10, 0 is no effect, 10 is complete control
# [31] = Rate 250 g/ha, headed Pre-emergence (flood test species), scale 0 to 10 (0 no effect, 10 complete control)
# [32] = Rate 500 g/ha, headed Pre-emergence (flood test species), scale 0 to 10 (0 no effect, 10 complete control)
# [33] = Rate 500 g/ha, listed under Postemergence (flood test species), scale 0 to 10, 0 no effect, 10 complete control
# [34] = Rate 1000 g/ha, Pre-emergence (as headed), scale 0 to 10
# [35] = Rate 2000 g/ha, Pre-emergence (as headed), scale 0 to 10
# [36] = flood test, listed under Postemergence, Rate 250 g/ha, scale 0 to 10, 0 no effect, 10 complete control
# [37] = Preemergence, Rate 125 g/ha, 0 is no effect, 10 is complete control
# [38] = Preemergence, scale of 0 to 10 where 0 is no effect and 10 is complete control
# [39] = Postemergence, scale 0 to 10, 0 is no effect, 10 is complete control
smiles,measurement,setting,value
CCn1c(=O)on(C(=O)N(c2ccc(Cl)cc2)C(C)C)c1=O [Compound 108],Bedstraw plant response rating,[1]; [17],0
same,Bedstraw plant response rating,[1]; [18],2
same,Bedstraw plant response rating,[1]; [19],0
same,"Plant response rating, Bedstraw",[1]; [20],5
same,"Plant response rating, Bedstraw",[1]; [21],8
same,Bedstraw plant response rating,[1]; [22],8
same,Bedstraw plant response rating,[1]; [23],0
same,Bedstraw plant response rating,[1]; [24],6
same,Soybean plant response rating,[2]; [25],3
same,Soybean plant response rating,[2]; [19],0
same,"Plant response rating, Soybean",[2]; [20],0
same,"Plant response rating, Soybean",[2]; [21],0
same,Soybean plant response rating,[2]; [22],2
same,Soybean plant response rating,[2]; [26],1
same,"Plant response rating, Soybean",[2]; [27],5
same,Soybean plant response rating,[2]; [24],5
same,Corn plant response rating,[3]; [25],0
same,Corn plant response rating,[3]; [18],0
same,Corn plant response rating,[3]; [19],0
same,"Plant response rating, Corn",[3]; [20],0
same,"Plant response rating, Corn",[3]; [21],6
same,Corn plant response rating,[3]; [22],9
same,Corn plant response rating,[3]; [26],0
same,Corn plant response rating,[3]; [24],0
same,Giant foxtail plant response rating,[4]; [25],7
same,Giant foxtail plant response rating,[4]; [18],8
same,Giant foxtail plant response rating,[4]; [19],10
same,"Plant response rating, Giant foxtail",[4]; [20],10
same,"Plant response rating, Giant foxtail",[4]; [21],10
same,Giant foxtail plant response rating,[4]; [22],10
same,Giant foxtail plant response rating,[4]; [26],5
same,Giant foxtail plant response rating,[4]; [24],8
same,Rice plant response rating,[5]; [28],0
same,Rice plant response rating,[5]; [29],0
same,"Plant response rating, Rice",[5]; [30],0
same,Rice plant response rating,[5]; [31],0
same,"Plant response rating, Rice",[5]; [32],0
same,Rice plant response rating,[5]; [33],0
same,Rice plant response rating,[5]; [34],0
same,Rice plant response rating,[5]; [35],0
same,Nutsedge plant response rating,[6]; [25],3
same,Nutsedge plant response rating,[6]; [18],4
same,Nutsedge plant response rating,[6]; [19],0
same,"Plant response rating, Nutsedge",[6]; [20],0
same,"Plant response rating, Nutsedge",[6]; [21],0
same,Nutsedge plant response rating,[6]; [22],0
same,Nutsedge plant response rating,[6]; [26],0
same,Nutsedge plant response rating,[6]; [24],4
same,Ducksalad plant response rating,[7]; [28],0
same,Ducksalad plant response rating,[7]; [29],0
same,Ducksalad plant response rating,[7]; [31],0
same,"Plant response rating, Ducksalad",[7]; [32],0
same,Ducksalad plant response rating,[7]; [33],0
same,Ducksalad plant response rating,[7]; [34],0
same,Ducksalad plant response rating,[7]; [35],0
same,Ducksalad plant response rating,[7]; [36],0
same,Redroot pigweed plant response rating,[8]; [25],0
same,"Plant response rating, Redroot pigweed",[8]; [20],3
same,"Plant response rating, Redroot pigweed",[8]; [21],10
same,Redroot pigweed plant response rating,[8]; [22],10
same,Redroot pigweed plant response rating,[8]; [26],0
same,"Plant response rating, Redroot pigweed",[8]; [27],0
same,Redroot pigweed plant response rating,[8]; [24],3
same,Barnyardgrass plant response rating,[9]; [17],0
same,Barnyardgrass plant response rating,"[9]; Rate 125 g/ha, Postemergence section (flood test species), scale 0 to 10, 0 no effect, 10 complete control",0
same,Barnyardgrass plant response rating,[9]; [31],0
same,"Plant response rating, Barnyardgrass",[9]; [32],0
same,Barnyardgrass plant response rating,[9]; [33],0
same,Barnyardgrass plant response rating,[9]; [34],0
same,Barnyardgrass plant response rating,"[9]; Rate 2000 g/ha, Pre-emergence (as headed), scale 0 to 10, 0 no effect, 10 complete control",0
same,Barnyardgrass plant response rating,[9]; [36],0
same,Morningglory plant response rating,[10]; [25],3
same,Morningglory plant response rating,[10]; [18],3
same,Morningglory plant response rating,[10]; [19],0
same,"Plant response rating, Morningglory",[10]; [20],0
same,"Plant response rating, Morningglory",[10]; [21],0
same,Morningglory plant response rating,[10]; [22],0
same,Morningglory plant response rating,[10]; [26],0
same,Morningglory plant response rating,[10]; [24],3
same,Blackgrass plant response rating,[11]; [25],7
same,Blackgrass plant response rating,[11]; [18],7
same,Blackgrass plant response rating,[11]; [19],5
same,"Plant response rating, Blackgrass",[11]; [20],7
same,"Plant response rating, Blackgrass",[11]; [21],9
same,Blackgrass plant response rating,[11]; [22],10
same,Blackgrass plant response rating,[11]; [26],4
same,Blackgrass plant response rating,[11]; [24],8
same,Sugarbeets plant response rating,[12]; [25],0
same,Sugarbeets plant response rating,[12]; [19],3
same,Sugarbeets plant response rating (0 to 10 scale),[12]; [37],3
same,"Plant response rating, Sugarbeets",[12]; [38],4
same,Sugarbeets plant response rating,[12]; [22],8
same,Sugarbeets plant response rating,[12]; [26],0
same,"Plant response rating, Sugarbeets",[12]; [39],2
same,Sugarbeets plant response rating,[12]; [24],2
same,B. signalgrass plant response rating,[13]; [17],0
same,B. signalgrass plant response rating,[13]; [18],3
same,B. signalgrass plant response rating,[13]; [19],4
same,"Plant response rating, B. signalgrass",[13]; [20],6
same,"Plant response rating, B. signalgrass",[13]; [21],7
same,B. signalgrass plant response rating,[13]; [22],9
same,B. signalgrass plant response rating,[13]; [23],3
same,B. signalgrass plant response rating,"[13]; Rate 500 g/ha, Postemergence, scale of 0 to 10 where 0 is no effect and 10 is complete control",6
same,Velvetleaf plant response rating,[14]; [25],4
same,Velvetleaf plant response rating,[14]; [19],3
same,Velvetleaf plant response rating (0 to 10 scale),[14]; [37],4
same,"Plant response rating, Velvetleaf",[14]; [38],4
same,Velvetleaf plant response rating,[14]; [22],5
same,Velvetleaf plant response rating,[14]; [26],2
same,"Plant response rating, Velvetleaf",[14]; [39],4
same,Velvetleaf plant response rating,[14]; [24],5
same,S. Flatsedge plant response rating,[15]; [28],0
same,S. Flatsedge plant response rating,"[15]; Pre-emergence, Rate 1000 g/ha, scale 0 to 10 (0 no effect, 10 complete control)",0
same,S. Flatsedge plant response rating,[15]; [29],0
same,"Plant response rating, S. Flatsedge",[15]; [30],0
same,S. Flatsedge plant response rating,[15]; [31],0
same,"Plant response rating, S. Flatsedge",[15]; [32],0
same,S. Flatsedge plant response rating,[15]; [33],0
same,S. Flatsedge plant response rating,[15]; [35],0
same,Rape plant response rating,[16]; [25],0
same,Rape plant response rating,[16]; [18],0
same,Rape plant response rating,[16]; [19],0
same,"Plant response rating, Rape",[16]; [20],0
same,"Plant response rating, Rape",[16]; [21],7
same,Rape plant response rating,[16]; [22],9
same,Rape plant response rating,[16]; [26],0
same,Rape plant response rating,[16]; [24],2
